Measured values reported in US20230365592A1 (Agios Pharmaceuticals, Inc., priority 2022, published 2023).

Molecular target: T1, human PAH with the R408W mutation (Homo sapiens, UniProt P00439, R408W)
T1 construct: expressed in transfected cells
T1 sequence (P00439 1-452 R408W): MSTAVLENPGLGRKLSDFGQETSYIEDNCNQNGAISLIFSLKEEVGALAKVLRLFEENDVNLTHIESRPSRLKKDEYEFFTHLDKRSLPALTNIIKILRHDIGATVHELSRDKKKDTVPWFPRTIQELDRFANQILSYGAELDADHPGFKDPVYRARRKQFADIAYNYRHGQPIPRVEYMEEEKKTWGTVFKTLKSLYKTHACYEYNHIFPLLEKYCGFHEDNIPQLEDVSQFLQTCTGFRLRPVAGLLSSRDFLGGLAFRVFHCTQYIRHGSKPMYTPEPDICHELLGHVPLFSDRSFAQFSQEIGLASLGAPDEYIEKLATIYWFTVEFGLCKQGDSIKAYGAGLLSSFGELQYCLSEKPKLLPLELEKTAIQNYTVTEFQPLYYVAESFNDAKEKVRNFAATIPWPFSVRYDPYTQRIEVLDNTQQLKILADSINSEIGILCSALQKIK
Assay: Cell Based Phenylalanine Flux Assay;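 further: after compound treatment, cells received sepiapterin plus isotope-labelled Phenylalanine for 4 hours, then labelled Tyrosine in the medium was quantified, 10-point 2-fold dilution series run in duplicate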
Conditions: A375 cells expressing human PAH R408W; 24 hrs compound incubation; 13C-Tyrosine by LC-MS; average where tested multiple times; read-out: AC50

| AC50 | SMILES |
| --- | --- |
| > 5000 nM | Cc1cccnc1-c1nnc(N2CCc3[nH]cnc3[C@@H]2c2cc3c(C(C)C)cccn3n2)o1 [Example 2284, (R)-2-(4-(4-isopropylpyrazolo[1,5-a]pyridin-2-yl)-1,4,6,7-tetrahydro-5H-imidazo[4,5-c]pyridin-5-yl)-5-(3-methylpyridin-2-yl)-1,3,4-oxadiazole] |
| < 500 nM | Cc1cccnc1-c1nnc(N2CCc3[nH]cnc3[C@H]2c2cc3c(C(C)C)cccn3n2)o1 [Example 2285, (S)-2-(4-(4-isopropylpyrazolo[1,5-a]pyridin-2-yl)-1,4,6,7-tetrahydro-5H-imidazo[4,5-c]pyridin-5-yl)-5-(3-methylpyridin-2-yl)-1,3,4-oxadiazole] |
| > 5000 nM | Cc1cccnc1-c1nnc(N2CCc3[nH]cnc3[C@@H]2c2cc3c(Cl)cccn3n2)o1 [Example 2286, (R)-2-(4-(4-chloropyrazolo[1,5-a]pyridin-2-yl)-1,4,6,7-tetrahydro-5H-imidazo[4,5-c]pyridin-5-yl)-5-(3-methylpyridin-2-yl)-1,3,4-oxadiazole] |
| < 500 nM | Fc1cccnc1-c1nnc(N2CCc3[nH]cnc3[C@H]2c2cc3c(F)cccn3n2)o1 [Example 2289, (S)-2-(4-(4-fluoropyrazolo[1,5-a]pyridin-2-yl)-1,4,6,7-tetrahydro-5H-imidazo[4,5-c]pyridin-5-yl)-5-(3-fluoropyridin-2-yl)-1,3,4-oxadiazole] |
| 1000 to 5000 nM | Cc1cc(-c2nnc(C(=O)N3CCc4[nH]cnc4[C@H]3c3cc4c(C)cccn4n3)o2)n[nH]1 [Example 2291, (S)-(5-(5-methyl-1H-pyrazol-3-yl)-1,3,4-oxadiazol-2-yl)(4-(4-methylpyrazolo[1,5-a]pyridin-2-yl)-1,4,6,7-tetrahydro-5H-imidazo[4,5-c]pyridin-5-yl)methanone] |
| < 500 nM | Cc1c[nH]nc1-c1nnc(C(=O)N2CCc3[nH]cnc3[C@H]2c2cc3c(C)cccn3n2)o1 [Example 2292, (S)-(5-(4-methyl-1H-pyrazol-3-yl)-1,3,4-oxadiazol-2-yl)(4-(4-methylpyrazolo[1,5-a]pyridin-2-yl)-1,4,6,7-tetrahydro-5H-imidazo[4,5-c]pyridin-5-yl)methanone] |
| > 5000 nM | Cc1c[nH]nc1-c1nnc(C(=O)N2CCc3[nH]cnc3[C@@H]2c2cc3c(C)cccn3n2)o1 [Example 2293, (R)-(5-(4-methyl-1H-pyrazol-3-yl)-1,3,4-oxadiazol-2-yl)(4-(4-methylpyrazolo[1,5-a]pyridin-2-yl)-1,4,6,7-tetrahydro-5H-imidazo[4,5-c]pyridin-5-yl)methanone] |
| > 5000 nM | Cc1cc(-c2nnc(C(=O)N3CCc4[nH]cnc4[C@@H]3c3cc4c(F)cccn4n3)o2)n[nH]1 [Example 2294, (R)-(4-(4-fluoropyrazolo[1,5-a]pyridin-2-yl)-1,4,6,7-tetrahydro-5H-imidazo[4,5-c]pyridin-5-yl)(5-(5-methyl-1H-pyrazol-3-yl)-1,3,4-oxadiazol-2-yl)methanone] |
| 1000 to 5000 nM | COc1cccn2nc([C@H]3c4nc[nH]c4CCN3c3ncccn3)cc12 [Example 2298, (R)-4-(4-methoxypyrazolo[1,5-a]pyridin-2-yl)-5-(pyrimidin-2-yl)-4,5,6,7-tetrahydro-1H-imidazo[4,5-c]pyridine] |
| < 500 nM | COc1cccn2nc([C@@H]3c4nc[nH]c4CCN3c3ncccn3)cc12 [Example 2299, (S)-4-(4-methoxypyrazolo[1,5-a]pyridin-2-yl)-5-(pyrimidin-2-yl)-4,5,6,7-tetrahydro-1H-imidazo[4,5-c]pyridine] |
| 500 to 1000 nM | CC(C)c1nnc(N2CCc3[nH]cnc3[C@H]2c2cc3ccccn3n2)o1 [Example 2301, (S)-2-isopropyl-5-(4-(pyrazolo[1,5-a]pyridin-2-yl)-1,4,6,7-tetrahydro-5H-imidazo[4,5-c]pyridin-5-yl)-1,3,4-oxadiazole] |
| < 500 nM | Cc1cccn2nc([C@@H]3c4nc[nH]c4CCN3c3nnc(C(C)C)o3)cc12 [Example 2303, (S)-2-isopropyl-5-(4-(4-methylpyrazolo[1,5-a]pyridin-2-yl)-1,4,6,7-tetrahydro-5H-imidazo[4,5-c]pyridin-5-yl)-1,3,4-oxadiazole] |
| 500 to 1000 nM | CC(C)c1nnc(N2CCc3[nH]cnc3[C@H]2c2cc3c(C(F)(F)F)cccn3n2)o1 [Example 2305, (S)-2-isopropyl-5-(4-(4-(trifluoromethyl)pyrazolo[1,5-a]pyridin-2-yl)-1,4,6,7-tetrahydro-5H-imidazo[4,5-c]pyridin-5-yl)-1,3,4-oxadiazole] |
| > 5000 nM | Cc1cccnc1-c1nnc(N2CCc3[nH]cnc3[C@@H]2c2cc3cccc(C)n3n2)o1 [Example 2308, (R)-2-(4-(7-methylpyrazolo[1,5-a]pyridin-2-yl)-1,4,6,7-tetrahydro-5H-imidazo[4,5-c]pyridin-5-yl)-5-(3-methylpyridin-2-yl)-1,3,4-oxadiazole] |
| 500 to 1000 nM | Cc1cccnc1-c1nnc(N2CCc3[nH]cnc3[C@H]2c2cc3cccc(C)n3n2)o1 [Example 2309, (S)-2-(4-(7-methylpyrazolo[1,5-a]pyridin-2-yl)-1,4,6,7-tetrahydro-5H-imidazo[4,5-c]pyridin-5-yl)-5-(3-methylpyridin-2-yl)-1,3,4-oxadiazole] |
| < 500 nM | Cc1cccn2nc([C@@H]3c4nc[nH]c4CCN3c3ccccc3)cc12 [Example 2311, (S)-4-(4-methylpyrazolo[1,5-a]pyridin-2-yl)-5-phenyl-4,5,6,7-tetrahydro-1H-imidazo[4,5-c]pyridine] |
| 1000 to 5000 nM | Fc1cccn2nc([C@H]3c4nc[nH]c4CCN3c3ccccc3)cc12 [Example 2312, (R)-4-(4-fluoropyrazolo[1,5-a]pyridin-2-yl)-5-phenyl-4,5,6,7-tetrahydro-1H-imidazo[4,5-c]pyridine] |
| < 500 nM | Fc1cccn2nc([C@@H]3c4nc[nH]c4CCN3c3ccccc3)cc12 [Example 2313, (S)-4-(4-fluoropyrazolo[1,5-a]pyridin-2-yl)-5-phenyl-4,5,6,7-tetrahydro-1H-imidazo[4,5-c]pyridine] |
| < 500 nM | FC(F)(F)Oc1cccn2nc([C@@H]3c4nc[nH]c4CCN3c3nnc(C4CC4)o3)cc12 [Example 2314, (S)-2-cyclopropyl-5-(4-(4-(trifluoromethoxy)pyrazolo[1,5-a]pyridin-2-yl)-1,4,6,7-tetrahydro-5H-imidazo[4,5-c]pyridin-5-yl)-1,3,4-oxadiazole] |
| < 500 nM | FC(F)(F)Oc1cccn2nc([C@@H]3c4nc[nH]c4CCN3c3ncc(C(F)(F)F)cn3)cc12 [Example 2316, (S)-4-(4-(trifluoromethoxy)pyrazolo[1,5-a]pyridin-2-yl)-5-(5-(trifluoromethyl)pyrimidin-2-yl)-4,5,6,7-tetrahydro-1H-imidazo[4,5-c]pyridine] |
| > 5000 nM | FC(F)Oc1cccn2nc([C@H]3c4nc[nH]c4CCN3c3cnccn3)cc12 [Example 2318, (R)-4-(4-(difluoromethoxy)pyrazolo[1,5-a]pyridin-2-yl)-5-(pyrazin-2-yl)-4,5,6,7-tetrahydro-1H-imidazo[4,5-c]pyridine] |
| > 5000 nM | CC(C)c1nnc(N2CCc3[nH]cnc3[C@@H]2c2cc3c(F)cccn3n2)o1 [Example 2322, (R)-2-(4-(4-fluoropyrazolo[1,5-a]pyridin-2-yl)-1,4,6,7-tetrahydro-5H-imidazo[4,5-c]pyridin-5-yl)-5-isopropyl-1,3,4-oxadiazole] |
| > 5000 nM | CC(C)c1nnc(N2CCc3[nH]cnc3[C@@H]2c2cc3c(Cl)cccn3n2)o1 [Example 2324, (R)-2-(4-(4-chloropyrazolo[1,5-a]pyridin-2-yl)-1,4,6,7-tetrahydro-5H-imidazo[4,5-c]pyridin-5-yl)-5-isopropyl-1,3,4-oxadiazole] |
| < 500 nM | CC(C)c1nnc(N2CCc3[nH]cnc3[C@H]2c2cc3c(Cl)cccn3n2)o1 [Example 2325, (S)-2-(4-(4-chloropyrazolo[1,5-a]pyridin-2-yl)-1,4,6,7-tetrahydro-5H-imidazo[4,5-c]pyridin-5-yl)-5-isopropyl-1,3,4-oxadiazole] |
| 1000 to 5000 nM | CC(F)(F)c1nnc(N2CCc3[nH]cnc3[C@H]2c2cc3cccc(Cl)n3n2)o1 [Example 2327, (S)-2-(4-(7-chloropyrazolo[1,5-a]pyridin-2-yl)-1,4,6,7-tetrahydro-5H-imidazo[4,5-c]pyridin-5-yl)-5-(1,1-difluoroethyl)-1,3,4-oxadiazole] |
| 1000 to 5000 nM | Cc1cccc2cc([C@@H]3c4nc[nH]c4CCN3c3nnc(C(C)(F)F)o3)nn12 [Example 2329, (S)-2-(1,1-difluoroethyl)-5-(4-(7-methylpyrazolo[1,5-a]pyridin-2-yl)-1,4,6,7-tetrahydro-5H-imidazo[4,5-c]pyridin-5-yl)-1,3,4-oxadiazole] |
| > 5000 nM | Cc1ncccc1-c1nnc(N2CCc3[nH]cnc3[C@@H]2c2cc3cccc(Cl)n3n2)o1 [Example 2331, (R)-2-(4-(7-chloropyrazolo[1,5-a]pyridin-2-yl)-1,4,6,7-tetrahydro-5H-imidazo[4,5-c]pyridin-5-yl)-5-(2-methylpyridin-3-yl)-1,3,4-oxadiazole] |
| 500 to 1000 nM | Cc1ncccc1-c1nnc(N2CCc3[nH]cnc3[C@H]2c2cc3cccc(C)n3n2)o1 [Example 2332, (S)-2-(4-(7-methylpyrazolo[1,5-a]pyridin-2-yl)-1,4,6,7-tetrahydro-5H-imidazo[4,5-c]pyridin-5-yl)-5-(2-methylpyridin-3-yl)-1,3,4-oxadiazole] |
